Laboratory results taken from US20250046404A1, “SYSTEMS AND METHODS RELATING TO A MACHINE LEARNING PREDICTION MODEL FOR PREDICTING MOLECULAR TARGETS OF SMALL MOLECULES” (KBR WYLE SERVICES, LLC, priority 2023, published 2025).

Tests used:
miR-451 [1] = assay: Zebrafish embryo erythrocyte accumulation with PTU, O-dianisidine hemoglobin stain; assay type: in vivo; details: for hemoglobinized cells / blood accumulation (O-dianisidine staining): 2-day-old embryos, lateral view, tail region, upon drug treatment
Procedure: Zebrafish embryos were incubated with different drug candidates predicted by sChemNET in combination with phenyl-thiourea (PTU), a chemical known to induce anemia due to oxidative stress when miR-451 activity is impaired, but not in wild-type embryos. 48 hours after fertilization, embryos display robust blood circulation. At this stage, the accumulation of mature erythrocytes can be easily assessed in transparent embryos using O-dianisidine, a hemoglobin-specific stain. Drugs impairing miR-451 activity induce anemia, while miR-451 boosting drugs will increase erythrocyte production (blood circulation).
Ventral images of 2-day-old embryos stained with O-dianisidine reveal hemoglobinized cells (brown staining).) for wild-type embryos and those treated with docetaxel, β-elemene and α-calcidol. Blood accumulated in the ventral region (ducts of Cuvier).

miR-451 [2] = assay: Effect on levels of miR-451; details: zebrafish, in vivo
Excerpt: (§1) Either mechanism of action may be valid, as both pathways will allow the desired output, which complements miRNA activity.
(§2) Dicer processes miR-144, but at the same time is a target of miR-144 (PMID: 32191872), effectively canceling a potential drug-induced increase in miR-144 output.

miR-144 = assay: Effect on levels of miR-144; assay type: in vivo, Zebrafish; details: erythrocyte specific miR-144
Excerpt: as §1, §2

| SMILES | hemoglobinized cells / blood accumulation (O-dianisidine staining) (miR-451 [1]) | levels of miR-451 (miR-451 [2]) | levels of miR-144 (cluster partner of miR-451) (miR-144) | blood production (miR-451 [1]; zebrafish, in vivo) |
| --- | --- | --- | --- | --- |
| CC(=O)O[C@@]12CO[C@@H]1C[C@H](O)[C@@]1(C)C(=O)[C@H](O)C3=C(C)[C@@H](OC(=O)[C@H](O)[C@@H](NC(=O)OC(C)(C)C)c4ccccc4)C[C@@](O)([C@@H](OC(=O)c4ccccc4)[C@H]21)C3(C)C [docetaxel] | accumulation of the excess of blood in the tail region | – | – | – |
| C=C[C@]1(C)CC[C@@H](C(=C)C)C[C@H]1C(=C)C [β-elemene] | accumulation of the excess of blood in the tail region | – | – | – |
| C=C1/C(=C\C=C2/CCC[C@]3(C)[C@@H]([C@H](C)CCCC(C)C)CC[C@@H]23)C[C@@H](O)C[C@@H]1O [α-Calcidol] | accumulation of the excess of blood in the tail region | does not directly affect the levels | does not directly affect the levels | boosts blood production |
